Measured values reported in ChEMBL document CHEMBL4130590, “Mtb PKNA/PKNB Dual Inhibition Provides Selectivity Advantages for Inhibitor Design To Minimize Host Kinase Interactions” (ACS Med Chem Lett, 2017).
Converted amounts (≈) assume the structure as drawn.

Key:
[1] = target: T1, Serine/threonine-protein kinase PknB (Mycobacterium tuberculosis, UniProt P9WI81); test: Inhibition of Mycobacterium tuberculosis PknB (M1 to G279 residues) expressed in Escherichia coli BL21 (DE3) cells using [T-33P]ATP as substrate after 50 mins in presence of GarA by liquid scintillation method
T1 sequence (P9WI81 whole entry): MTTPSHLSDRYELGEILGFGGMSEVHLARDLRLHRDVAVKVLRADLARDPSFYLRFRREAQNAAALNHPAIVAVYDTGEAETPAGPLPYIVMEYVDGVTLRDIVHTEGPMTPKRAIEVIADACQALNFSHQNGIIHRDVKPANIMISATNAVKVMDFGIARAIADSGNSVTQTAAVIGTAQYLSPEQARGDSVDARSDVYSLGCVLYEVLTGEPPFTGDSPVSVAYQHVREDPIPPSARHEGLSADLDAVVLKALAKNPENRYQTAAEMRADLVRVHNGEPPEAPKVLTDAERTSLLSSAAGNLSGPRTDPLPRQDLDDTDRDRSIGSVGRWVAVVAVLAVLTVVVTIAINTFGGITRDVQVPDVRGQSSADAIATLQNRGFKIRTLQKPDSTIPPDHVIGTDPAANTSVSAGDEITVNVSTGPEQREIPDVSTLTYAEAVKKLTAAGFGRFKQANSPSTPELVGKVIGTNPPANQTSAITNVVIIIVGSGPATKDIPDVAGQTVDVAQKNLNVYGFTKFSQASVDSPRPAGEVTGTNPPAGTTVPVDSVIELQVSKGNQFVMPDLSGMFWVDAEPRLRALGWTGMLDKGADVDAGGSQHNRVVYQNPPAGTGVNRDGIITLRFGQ

[2] = target: T2, Serine/threonine-protein kinase PknA (Mycobacterium tuberculosis (strain ATCC 25618 / H37Rv), UniProt P9WI83); test: Inhibition of Mycobacterium tuberculosis PknA (M1 to A296 residues) expressed in Escherichia coli BL21 (DE3) pLysS cells using [T-33P]ATP as substrate after 120 mins in presence of GarA by liquid scintillation method
T2 sequence (P9WI83 whole entry): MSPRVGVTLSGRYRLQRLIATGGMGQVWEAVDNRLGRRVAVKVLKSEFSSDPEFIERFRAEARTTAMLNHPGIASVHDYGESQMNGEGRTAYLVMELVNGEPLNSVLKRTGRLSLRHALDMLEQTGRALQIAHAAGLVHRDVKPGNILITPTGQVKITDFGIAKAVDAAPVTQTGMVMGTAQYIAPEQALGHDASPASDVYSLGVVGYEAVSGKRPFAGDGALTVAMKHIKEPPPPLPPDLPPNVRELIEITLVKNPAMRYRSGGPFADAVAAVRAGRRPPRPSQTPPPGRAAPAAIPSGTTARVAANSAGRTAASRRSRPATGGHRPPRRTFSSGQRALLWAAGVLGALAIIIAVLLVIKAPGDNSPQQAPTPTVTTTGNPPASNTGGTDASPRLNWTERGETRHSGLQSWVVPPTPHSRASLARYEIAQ

[3] = system: Mycobacterium tuberculosis; test: Antibacterial activity against Mycobacterium tuberculosis H37Ra after […] by resazurin reduction assay; type: functional
CDK2/Cyclin A2 = CDK2/Cyclin A2 (Homo sapiens, UniProt P24941); test: Inhibition of recombinant CDK2/cyclin A (unknown origin) using MAHHRSPRKRAKKK as substrate by pyruvate kinase-lactate dehydrogenase coupled assay; type: protein-complex assay
[4] = Selectivity ratio of Ki for recombinant CDK2/cyclin A (unknown origin) to Ki for Mycobacterium tuberculosis PknB (M1 to G279 residues)
[5] = target: Proto-oncogene tyrosine-protein kinase Src (Homo sapiens, UniProt P12931); test: Inhibition of recombinant SRC (unknown origin) using polyE4Y as substrate by pyruvate kinase-lactate dehydrogenase coupled assay
[6] = target: Glycogen synthase kinase-3 beta (Homo sapiens, UniProt P49841); test: Inhibition of recombinant GSK3beta (unknown origin) using HSSPHQ(Sp)EDEEE as substrate by pyruvate kinase-lactate dehydrogenase coupled assay
Sequence of Glycogen synthase kinase-3 beta (P49841 whole entry): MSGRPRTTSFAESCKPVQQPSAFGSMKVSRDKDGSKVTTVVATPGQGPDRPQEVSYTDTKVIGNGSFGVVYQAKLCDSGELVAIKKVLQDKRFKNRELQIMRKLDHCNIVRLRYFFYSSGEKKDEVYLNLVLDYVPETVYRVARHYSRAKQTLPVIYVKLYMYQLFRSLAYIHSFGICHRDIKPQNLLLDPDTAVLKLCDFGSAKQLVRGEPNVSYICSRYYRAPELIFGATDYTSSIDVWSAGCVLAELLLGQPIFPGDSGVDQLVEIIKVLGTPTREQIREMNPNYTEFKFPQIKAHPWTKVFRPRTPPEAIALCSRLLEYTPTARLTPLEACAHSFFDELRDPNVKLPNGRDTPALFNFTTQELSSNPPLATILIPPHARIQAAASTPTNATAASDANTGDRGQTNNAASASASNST

Sequence of Proto-oncogene tyrosine-protein kinase Src (P12931 2-536 limits assumed): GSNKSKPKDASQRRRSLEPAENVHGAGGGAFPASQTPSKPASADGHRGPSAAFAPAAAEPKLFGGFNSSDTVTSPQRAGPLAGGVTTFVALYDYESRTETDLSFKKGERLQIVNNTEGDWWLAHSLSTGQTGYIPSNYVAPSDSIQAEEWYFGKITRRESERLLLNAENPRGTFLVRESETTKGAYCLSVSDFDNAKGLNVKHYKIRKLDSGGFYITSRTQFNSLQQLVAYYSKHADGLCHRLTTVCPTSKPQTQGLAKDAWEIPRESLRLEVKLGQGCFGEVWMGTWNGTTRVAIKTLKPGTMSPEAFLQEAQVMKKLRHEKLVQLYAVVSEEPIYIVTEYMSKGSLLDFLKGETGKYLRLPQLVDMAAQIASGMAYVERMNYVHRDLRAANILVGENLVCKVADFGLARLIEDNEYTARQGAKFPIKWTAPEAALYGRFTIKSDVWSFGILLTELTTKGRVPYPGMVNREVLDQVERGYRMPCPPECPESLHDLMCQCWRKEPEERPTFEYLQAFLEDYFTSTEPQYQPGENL

Compound	Ki [1] [nM]	Ki [2] [nM]	also measured
N#CCc1ccc(-c2nc(Nc3cc(C4CC4)[nH]n3)c3cc(Cl)ccc3n2)cc1	5	> 4000	
CC(C)N1CCN(c2nc(Nc3cc(C4CC4)[nH]n3)c3cc(Cl)ccc3n2)CC1	1400		
Fc1ccc2nc(N3CCCCCC3)nc(Nc3cc(C4CC4)[nH]n3)c2c1	81	> 33000	
NS(=O)(=O)c1ccc(-c2nc(Nc3cc(C4CC4)[nH]n3)c3cc(Cl)ccc3n2)cc1	24	22	
NS(=O)(=O)c1ccc(-c2ncc(Cl)c(Nc3cc(C4CC4)[nH]n3)n2)s1	< 1.3	9	MIC90 [3]: 6.25 µM (≈ 2.48 µg/mL); Ki (CDK2/Cyclin A2): 17 nM; Ratio Ki [4]: > 13
NC(=O)c1ccc(-c2nc(Nc3cc(C4CC4)[nH]n3)c3cc(Cl)ccc3n2)cc1	29	> 4000	
O=C(c1ccccc1)N1CCN(c2nc(Nc3cc(C4CC4)[nH]n3)c3cc(Cl)ccc3n2)CC1	310		
COC(=O)N1CCCN(c2nc(Nc3cc(C4CC4)[nH]n3)c3cc(Cl)ccc3n2)CC1	230		
Clc1ccc2nc(NC3CCC3)nc(Nc3cc(C4CC4)[nH]n3)c2c1	72		
Clc1ccc2nc(N3CCCOCC3)nc(Nc3cc(C4CC4)[nH]n3)c2c1	150		
NS(=O)(=O)c1ccc(-c2nc(Nc3cc(C4CC4)[nH]n3)c3cc(Cl)ccc3n2)s1	< 1	< 8	
Clc1ccc2nc(N3CCNCC3)nc(Nc3cc(C4CC4)[nH]n3)c2c1	990		
O=C1CCN(c2nc(Nc3cc(C4CC4)[nH]n3)c3cc(Cl)ccc3n2)CCN1	190		
N#Cc1ccc(-c2nc(Nc3cc(C4CC4)[nH]n3)c3ccccc3n2)cc1	46		Ki [5]: 18 nM; Ki (CDK2/Cyclin A2): 140 nM; Ki [6]: 70 nM
CC(=O)N1CCCN(c2nc(Nc3cc(C4CC4)[nH]n3)c3cc(Cl)ccc3n2)CC1	150		
NC(=O)Cc1ccc(-c2nc(Nc3cc(C4CC4)[nH]n3)c3cc(Cl)ccc3n2)cc1	23	1800	
COc1ccc2nc(N3CCCCCC3)nc(Nc3cc(C4CC4)[nH]n3)c2c1	82	> 33000	
Clc1ccc2nc(-c3ccccc3)nc(Nc3cc(C4CC4)[nH]n3)c2c1	60 to 69	> 4000	

Compound	Ki [1] [nM]	Ki [2] [nM]	also measured
Clc1ccc2nc(N3CCCCCC3)nc(Nc3cc(C4CC4)[nH]n3)c2c1	150	> 33000	MIC90 [3]: 33 µM (≈ 12.6 µg/mL)
NS(=O)(=O)c1cccc(-c2ncc(Cl)c(Nc3cc(C4CC4)[nH]n3)n2)c1	17	< 8	MIC90 [3]: 8.3 µM (≈ 3.24 µg/mL)
Cc1cnc(-c2ccc(S(N)(=O)=O)s2)nc1Nc1cc(C2CC2)[nH]n1	4	18	MIC90 [3]: 4.7 µM (≈ 1.77 µg/mL)
Clc1ccc2nc(N3CCCNCC3)nc(Nc3cc(C4CC4)[nH]n3)c2c1	960		
Cc1ccc2nc(N3CCCCCC3)nc(Nc3cc(C4CC4)[nH]n3)c2c1	98	> 33000	
N#CCc1cccc(-c2nc(Nc3cc(C4CC4)[nH]n3)c3cc(Cl)ccc3n2)c1	38		
Cc1cnc(-c2ccc(S(N)(=O)=O)s2)nc1Nc1cc(C2CC2)n(C)n1	> 4000	> 4000	MIC90 [3]: > 100 µM
N#Cc1ccc(-c2nc(Nc3cc(C4CC4)[nH]n3)c3cc(Cl)ccc3n2)cc1	88	> 4000	Ki [5]: 710 nM; Ki (CDK2/Cyclin A2): 170 nM; Ki [6]: 190 nM
N#Cc1cccc(-c2nc(Nc3cc(C4CC4)[nH]n3)c3cc(Cl)ccc3n2)c1	50	> 4000	Ki [5]: 200 nM; Ki (CDK2/Cyclin A2): 750 nM; Ki [6]: > 4000 nM
OCc1cccc(-c2nc(Nc3cc(C4CC4)[nH]n3)c3cc(Cl)ccc3n2)c1	23	2300	
CN1CCN(c2nc(Nc3cc(C4CC4)[nH]n3)c3cc(Cl)ccc3n2)CCC1=O	310		
N#Cc1cccc(-c2nc(Nc3cc(C4CC4)[nH]n3)c3ccccc3n2)c1	40		Ki [5]: 22 nM; Ki (CDK2/Cyclin A2): 11 nM; Ki [6]: 9 nM
NS(=O)(=O)c1ccc(-c2ncc(F)c(Nc3cc(C4CC4)[nH]n3)n2)s1	< 1	12	MIC90 [3]: 3.1 µM (≈ 1.18 µg/mL)
NS(=O)(=O)c1ccc(-c2ncc(Cl)c(Nc3cc(C4CC4)[nH]n3)n2)cc1	13	2900	MIC90 [3]: > 100 µM
NS(=O)(=O)c1cccc(-c2nc(Nc3cc(C4CC4)[nH]n3)c3cc(Cl)ccc3n2)c1	6	< 8	
NS(=O)(=O)c1ccc(-c2nccc(Nc3cc(C4CC4)[nH]n3)n2)s1	4	18	MIC90 [3]: 4.2 µM (≈ 1.52 µg/mL); Ki (CDK2/Cyclin A2): 7 nM; Ratio Ki [4]: 2
NC(=O)c1cccc(-c2nc(Nc3cc(C4CC4)[nH]n3)c3cc(Cl)ccc3n2)c1	15	> 4000	
